According to ChEMBL document CHEMBL4371084, “Design, synthesis and biological evaluation of novel HIV-1 protease inhibitors with pentacyclic triterpenoids as P2-ligands” (Bioorg Med Chem Lett, 2019):

What follows are compounds tested against Protease (Human immunodeficiency virus 1, UniProt Q9YQ12) (assay: Inhibition of HIV1 protease expressed in Escherichia coli using Arg-Glu (EDANS)-Ser-Gln-Asn-Tyr-Pro-Ile-Val-Gln-Lys(DABCYL)-Arg as substrate preincubated for 20 to 30 mins followed by substrate addition and measured for 10 mins by FRET assay).
Protease, sequence (Q9YQ12 whole entry): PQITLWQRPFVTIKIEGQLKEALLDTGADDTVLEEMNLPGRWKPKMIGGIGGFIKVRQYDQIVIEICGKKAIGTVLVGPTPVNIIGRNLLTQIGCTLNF

Row | Structure (SMILES) | IC50
1 | CC(C)CN(C[C@@H](O)[C@H](Cc1ccccc1)NC(=O)[C@]1(C)CC[C@@H]2C3=CC(=O)[C@@H]4[C@@]5(C)CC[C@H](O)C(C)(C)[C@@H]5CC[C@@]4(C)[C@]3(C)CC[C@@]2(C)C1)S(=O)(=O)c1ccc(N)cc1 | 490 nM
2 | CC(C)CN(C[C@@H](O)[C@H](Cc1ccccc1)NC(=O)[C@]1(C)CC[C@H]2C3=CC(=O)[C@@H]4[C@@]5(C)CC[C@H](O)C(C)(C)[C@@H]5CC[C@@]4(C)[C@]3(C)CC[C@@]2(C)C1)S(=O)(=O)c1ccc([N+](=O)[O-])cc1 | 500 nM
3 | CC(C)CN(C[C@@H](O)[C@H](Cc1ccccc1)NC(=O)[C@]12CC[C@@H](C)[C@H](C)[C@H]1C1=CC[C@@H]3[C@@]4(C)CC[C@H](O)C(C)(C)[C@@H]4CC[C@@]3(C)[C@]1(C)CC2)S(=O)(=O)c1ccc([N+](=O)[O-])cc1 | 400 nM
4 | CC(C)CN(C[C@@H](O)[C@H](Cc1ccccc1)NC(=O)[C@]12CC[C@@H](C)[C@H](C)[C@H]1C1=CC[C@@H]3[C@@]4(C)CCC(=O)C(C)(C)[C@@H]4CC[C@@]3(C)[C@]1(C)CC2)S(=O)(=O)c1ccc(N)cc1 | 2370 nM
5 | CC(C)CN(C[C@@H](O)[C@H](Cc1ccccc1)NC(=O)[C@]12CC[C@@H](C)[C@H](C)[C@H]1C1=CC[C@@H]3[C@@]4(C)CC[C@H](O)C(C)(C)[C@@H]4CC[C@@]3(C)[C@]1(C)CC2)S(=O)(=O)c1ccc(N)cc1 | 120 nM
6 | C=C(C)[C@@H]1CC[C@]2(C(=O)N[C@@H](Cc3ccccc3)[C@H](O)CN(CC(C)C)S(=O)(=O)c3ccc(N)cc3)CC[C@]3(C)[C@H](CC[C@@H]4[C@@]5(C)CC[C@H](O)C(C)(C)[C@@H]5CC[C@]43C)[C@@H]12 | 610 nM
7 | COc1ccc(S(=O)(=O)N(CC(C)C)C[C@@H](O)[C@H](Cc2ccccc2)NC(=O)[C@]2(C)CC[C@@H]3C4=CC(=O)[C@@H]5[C@@]6(C)CC[C@H](O)C(C)(C)[C@@H]6CC[C@@]5(C)[C@]4(C)CC[C@@]3(C)C2)cc1 | 1850 nM
8 | CC(C)CN(C[C@@H](O)[C@H](Cc1ccccc1)NC(=O)[C@]12CC[C@@H](C)[C@H](C)[C@H]1C1=CC[C@@H]3[C@@]4(C)C[C@@H](O)[C@H](O)[C@@](C)(CO)[C@@H]4CC[C@@]3(C)[C@]1(C)CC2)S(=O)(=O)c1ccc([N+](=O)[O-])cc1 | 170 nM
9 | CC(C)CN(C[C@@H](O)[C@H](Cc1ccccc1)NC(=O)[C@]1(C)CC[C@@H]2C3=CC(=O)[C@@H]4[C@@]5(C)CC[C@H](O)C(C)(C)[C@@H]5CC[C@@]4(C)[C@]3(C)CC[C@@]2(C)C1)S(=O)(=O)c1ccc([N+](=O)[O-])cc1 | 1080 nM

Second part, the compound after the results:

Row | IC50 | Structure (SMILES)
10 | 170 nM | CC(C)CN(C[C@@H](O)[C@H](Cc1ccccc1)NC(=O)[C@]12CCC(C)(C)C[C@H]1C1=CC[C@@H]3[C@@]4(C)CC[C@H](O)C(C)(C)[C@@H]4CC[C@@]3(C)[C@]1(C)CC2)S(=O)(=O)c1ccc(N)cc1
11 | 580 nM | CC(C)CN(C[C@@H](O)[C@H](Cc1ccccc1)NC(=O)[C@]1(C)CC[C@H]2C3=CC(=O)[C@@H]4[C@@]5(C)CC[C@H](O)C(C)(C)[C@@H]5CC[C@@]4(C)[C@]3(C)CC[C@@]2(C)C1)S(=O)(=O)c1ccc(N)cc1
12 | 240 nM | COc1ccc(S(=O)(=O)N(CC(C)C)C[C@@H](O)[C@H](Cc2ccccc2)NC(=O)[C@]23CCC(C)(C)C[C@H]2C2=CC[C@@H]4[C@@]5(C)CC[C@H](O)C(C)(C)[C@@H]5CC[C@@]4(C)[C@]2(C)CC3)cc1
13 | 460 nM | COc1ccc(S(=O)(=O)N(CC(C)C)C[C@@H](O)[C@H](Cc2ccccc2)NC(=O)[C@]23CC[C@@H](C)[C@H](C)[C@H]2C2=CC[C@@H]4[C@@]5(C)CC[C@H](O)C(C)(C)[C@@H]5CC[C@@]4(C)[C@]2(C)CC3)cc1
14 | 220 nM | CC(C)CN(C[C@@H](O)[C@H](Cc1ccccc1)NC(=O)[C@]12CC[C@@H](C)[C@H](C)[C@H]1C1=CC[C@@H]3[C@@]4(C)CCC(=O)C(C)(C)[C@@H]4CC[C@@]3(C)[C@]1(C)CC2)S(=O)(=O)c1ccc([N+](=O)[O-])cc1
15 | 210 nM | C=C(C)[C@@H]1CC[C@]2(C(=O)N[C@@H](Cc3ccccc3)[C@H](O)CN(CC(C)C)S(=O)(=O)c3ccc(OC)cc3)CC[C@]3(C)[C@H](CC[C@@H]4[C@@]5(C)CC[C@H](O)C(C)(C)[C@@H]5CC[C@]43C)[C@@H]12
16 | 300 nM | CC(C)CN(C[C@@H](O)[C@H](Cc1ccccc1)NC(=O)[C@]12CC[C@@H](C)[C@H](C)[C@H]1C1=CC[C@@H]3[C@@]4(C)C[C@@H](O)[C@H](O)[C@@](C)(CO)[C@@H]4CC[C@@]3(C)[C@]1(C)CC2)S(=O)(=O)c1ccc(N)cc1
17 | 150 nM | COc1ccc(S(=O)(=O)N(CC(C)C)C[C@@H](O)[C@H](Cc2ccccc2)NC(=O)[C@]23CC[C@@H](C)[C@H](C)[C@H]2C2=CC[C@@H]4[C@@]5(C)C[C@@H](O)[C@H](O)[C@@](C)(CO)[C@@H]5CC[C@@]4(C)[C@]2(C)CC3)cc1
18 | 480 nM | COc1ccc(S(=O)(=O)N(CC(C)C)C[C@@H](O)[C@H](Cc2ccccc2)NC(=O)[C@]2(C)CC[C@H]3C4=CC(=O)[C@@H]5[C@@]6(C)CC[C@H](O)C(C)(C)[C@@H]6CC[C@@]5(C)[C@]4(C)CC[C@@]3(C)C2)cc1
19 | 1050 nM | C=C(C)[C@@H]1CC[C@]2(C(=O)N[C@@H](Cc3ccccc3)[C@H](O)CN(CC(C)C)S(=O)(=O)c3ccc([N+](=O)[O-])cc3)CC[C@]3(C)[C@H](CC[C@@H]4[C@@]5(C)CC[C@H](O)C(C)(C)[C@@H]5CC[C@]43C)[C@@H]12
20 | 150 nM | CC(C)CN(C[C@@H](O)[C@H](Cc1ccccc1)NC(=O)[C@]12CCC(C)(C)C[C@H]1C1=CC[C@@H]3[C@@]4(C)CC[C@H](O)C(C)(C)[C@@H]4CC[C@@]3(C)[C@]1(C)CC2)S(=O)(=O)c1ccc([N+](=O)[O-])cc1
21 | 370 nM | COc1ccc(S(=O)(=O)N(CC(C)C)C[C@@H](O)[C@H](Cc2ccccc2)NC(=O)[C@]23CC[C@@H](C)[C@H](C)[C@H]2C2=CC[C@@H]4[C@@]5(C)CCC(=O)C(C)(C)[C@@H]5CC[C@@]4(C)[C@]2(C)CC3)cc1

These compounds were tested against Protease (Human immunodeficiency virus 1) (UniProt Q9YQ12) (assay: Potency index, ratio of ursolic acid IC50 to test compound IC50 for HIV1 protease expressed in Escherichia coli).
Protease (Human immunodeficiency virus 1), sequence (Q9YQ12 as listed by the source): as the sequence (Q9YQ12 whole entry) above

Row | Ratio IC50 | Structure (SMILES)
22 | 67 | CC(C)CN(C[C@@H](O)[C@H](Cc1ccccc1)NC(=O)[C@]12CC[C@@H](C)[C@H](C)[C@H]1C1=CC[C@@H]3[C@@]4(C)CC[C@H](O)C(C)(C)[C@@H]4CC[C@@]3(C)[C@]1(C)CC2)S(=O)(=O)c1ccc(N)cc1
